pIC50: −log10 of the molar value. “And” between values parts separate entries of the source, which are not always exact repeats. Equal values may be shown once. Read-outs that look alike come from different tables or passages of the source.
Key:
[1] = target: T1, PDGFR (Homo sapiens, UniProt P09619); test: Biochemical PDGFR assay (bio PDGFR), ELISA
T1 construct: expressed in transfected cells; host or cells: NIH 3T3
Procedure: This assay measures the in vitro kinase activity of PDGFR using ELISA.
6. PDGFR-β expressing NIH 3T3 cell lysate (Screening Lab, SUGEN, Inc.).
1. Coat Corning 96 well ELISA plates with 0.5 μg 28D4C10 in 100 μl PBS per well, store overnight at 4° C.
2. Remove unbound 28D4C10 from wells by inverting plate to remove liquid. Wash 1× with dH2O. Pat the plate on a paper towel to remove excess liquid.
3. Add 150 μl of Blocking Buffer to each well. Incubate for 30 min. at room temperature with shaking.
4. Wash plate 3× with deionized water, then once with TBST. Pat plate on a paper towel to remove excess liquid and bubbles.
5. Dilute lysate in HNTG (10 μg lysate/100 μl HNTG)
6. Add 100 μl of diluted lysate to each well. Shake at room temperature for 60 min.
7. Wash plates as described in 4, above.
8. Add 80 μl working kinase buffer mix to ELISA plate containing captured PDGFR.
10. Add 10 μl diluted test compound to ELISA plate.
11. Incubate for 30 minutes while shaking at room temperature.
12. Add 10 μl ATP directly to all wells except negative control well (final well volume should be approximately 100 μl with 20 μM ATP in each well.) Incubate 30 minutes while shaking.
13. After 30 minutes, stop reaction by adding 10 μl of 200 mM EDTA (pH 8.0) to each well.
14. Wash 4× with deionized water, twice with TBST.
15. Add 100 μl anti-phosphotyrosine (1:3000 dilution in TBST) per well. Incubate 30-45 min. at room temperature, with shaking.
16. Wash as described in 4, above.
17. […] Incubate 30 min. at room temperature, with shaking.
18. Wash as described in 4, above.
19. Add 100 μl of ABTS/H2O2 solution to each well.
20. Incubate 10 to 30 minutes with shaking. Remove any bubbles.
21. If necessary stop reaction with the addition of 100 μl 0.2 M HCl per well.

[2] = target: T2, human flk-1 (Homo sapiens, UniProt P35968); test: Biochemical FLK-1 assay (bio Flk), autophosphorylation ELISA
T2 construct: expressed in transfected cells; host or cells: NIH fibroblast line (Flk-1/NIH cells, clone 3)
Procedure: This assay evaluates flk-1 autophosphorylation activity in vitro using ELISA.
1. Seed cell into growth medium and grow for 2-3 days to 90-100% confluency at 37° C. and 5% C)2.
2. Remove the medium and wash the cells twice with PBS. Lyse with HNTG lysis buffer. Collect all lysates and vortex mix them for 20-30 seconds.
3. Remove insoluble material by centrifugation (5-10 min at about 10,000×g).
4. Determine the protein concentration using BCA kit.
5. Partition lysate into 1 mg aliquots, store at −80° C.
1. Coat Corning 96-well ELISA plates with 2 μg/well purified L4 (or E 38) in 100 μl of PBS. Store overnight at 4° C.
2. Remove unbound proteins from wells by inverting the plate to remove the liquid. Wash one time with dH2O pat plate on paper towel to remove excess liquid.
3. Block plates with 150 μl blocking buffer per well. Incubate for 45-60 minutes with shaking at 4° C.
4. Remove the blocking buffer and wash the ELISA plate three times with dH2O and one time with TBST. Pat plate on paper towel to remove excess liquid.
5. Dilute lysate in PBS to give final concentration of 50 μg/100 μl. Add 100 μl of diluted lysate to each well. Incubate with shaking at 4° C. overnight.
6. Remove unbound proteins from wells by inverting the plate. Wash as in step 4.
7. Add 80 μl of kinase buffer to wells (90 μl to negative control wells).
8. Dilute test compounds (normally 10-fold) into wells of a polypropylene plate containing 20% DMSO in TBS.
9. Add 10 μl of the diluted compounds to the ELISA wells containing immobilized flk-1 and shake. Control wells receive no compounds.
10. From stock 1 mM ATP, prepare 0.3 mM ATP solution in dH20 (alternatively, kinase buffer may be used).
11. Add 10 μl of 0.3 mM ATP to all wells except the negative controls. Incubate for 60 min. at room temperature with shaking.
12. After 1 hr stop the kinase reaction by adding 11 μl 200 mM EDTA. Shake for 1-2 min.
13. Wash the ELISA plate 4 times with dH2O and twice with TBST.
14. Add 100 μl of 1:5000 biotinylated 4G10:TBST to all wells. Incubate 45 min with shaking at room temperature.
15. While the above is incubating, add 50 μl of solutions A & B from the ABC kit to 10 ml of TBST. These solutions must be combined approximately 30 min prior to use.
16. Wash plates as in step 4.
17. Add 100 μl of the preformed A & B complex to all wells. Incubate 30 min with shaking at room temperature.
18. Wash plates as in step 4.
19. Add 100 μl turbo-TMB. Shake at room temperature for 10-15 min.
20. When the color in the positive control wells reaches an absorbance of about 0.35-0.4, stop the reaction with 100 μl of turbo-TMB stop solution.

[3] = 50% inhibition of target PTK activity, read-out: bio PDGFR IC50
[4] = 50% inhibition of target PTK activity, read-out: bio Flk IC50
[5] = bio PDGFR IC50, 50% inhibition of target PTK activity

T1 sequence (P09619 33-1106, species assumed): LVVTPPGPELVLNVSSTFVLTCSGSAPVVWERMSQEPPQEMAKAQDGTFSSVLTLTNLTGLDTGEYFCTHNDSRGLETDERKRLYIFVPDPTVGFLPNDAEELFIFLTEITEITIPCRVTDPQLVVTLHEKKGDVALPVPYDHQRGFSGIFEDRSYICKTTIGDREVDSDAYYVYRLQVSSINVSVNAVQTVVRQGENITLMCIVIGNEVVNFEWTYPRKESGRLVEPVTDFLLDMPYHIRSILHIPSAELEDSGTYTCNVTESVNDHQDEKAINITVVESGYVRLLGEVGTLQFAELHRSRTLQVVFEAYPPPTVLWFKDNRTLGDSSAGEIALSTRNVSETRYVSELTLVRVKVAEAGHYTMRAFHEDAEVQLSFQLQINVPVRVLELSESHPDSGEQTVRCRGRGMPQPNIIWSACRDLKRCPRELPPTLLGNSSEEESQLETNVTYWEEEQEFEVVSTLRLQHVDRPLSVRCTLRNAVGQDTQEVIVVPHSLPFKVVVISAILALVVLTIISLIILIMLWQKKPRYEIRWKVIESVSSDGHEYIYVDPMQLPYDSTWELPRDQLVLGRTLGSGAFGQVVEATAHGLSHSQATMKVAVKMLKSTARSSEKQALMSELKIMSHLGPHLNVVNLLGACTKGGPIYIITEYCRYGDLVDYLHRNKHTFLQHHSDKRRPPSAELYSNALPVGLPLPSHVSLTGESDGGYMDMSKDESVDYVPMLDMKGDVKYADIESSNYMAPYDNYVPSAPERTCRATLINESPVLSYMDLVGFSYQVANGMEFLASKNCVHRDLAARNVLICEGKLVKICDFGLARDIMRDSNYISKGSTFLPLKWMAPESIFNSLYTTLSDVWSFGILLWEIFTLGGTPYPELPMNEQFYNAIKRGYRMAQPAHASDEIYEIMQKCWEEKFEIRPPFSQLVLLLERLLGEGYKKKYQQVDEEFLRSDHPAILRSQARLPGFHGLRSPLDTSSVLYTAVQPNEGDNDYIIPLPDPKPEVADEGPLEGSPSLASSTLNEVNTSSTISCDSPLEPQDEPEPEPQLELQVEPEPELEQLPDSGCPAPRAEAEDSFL
T2 sequence (P35968 20-1356): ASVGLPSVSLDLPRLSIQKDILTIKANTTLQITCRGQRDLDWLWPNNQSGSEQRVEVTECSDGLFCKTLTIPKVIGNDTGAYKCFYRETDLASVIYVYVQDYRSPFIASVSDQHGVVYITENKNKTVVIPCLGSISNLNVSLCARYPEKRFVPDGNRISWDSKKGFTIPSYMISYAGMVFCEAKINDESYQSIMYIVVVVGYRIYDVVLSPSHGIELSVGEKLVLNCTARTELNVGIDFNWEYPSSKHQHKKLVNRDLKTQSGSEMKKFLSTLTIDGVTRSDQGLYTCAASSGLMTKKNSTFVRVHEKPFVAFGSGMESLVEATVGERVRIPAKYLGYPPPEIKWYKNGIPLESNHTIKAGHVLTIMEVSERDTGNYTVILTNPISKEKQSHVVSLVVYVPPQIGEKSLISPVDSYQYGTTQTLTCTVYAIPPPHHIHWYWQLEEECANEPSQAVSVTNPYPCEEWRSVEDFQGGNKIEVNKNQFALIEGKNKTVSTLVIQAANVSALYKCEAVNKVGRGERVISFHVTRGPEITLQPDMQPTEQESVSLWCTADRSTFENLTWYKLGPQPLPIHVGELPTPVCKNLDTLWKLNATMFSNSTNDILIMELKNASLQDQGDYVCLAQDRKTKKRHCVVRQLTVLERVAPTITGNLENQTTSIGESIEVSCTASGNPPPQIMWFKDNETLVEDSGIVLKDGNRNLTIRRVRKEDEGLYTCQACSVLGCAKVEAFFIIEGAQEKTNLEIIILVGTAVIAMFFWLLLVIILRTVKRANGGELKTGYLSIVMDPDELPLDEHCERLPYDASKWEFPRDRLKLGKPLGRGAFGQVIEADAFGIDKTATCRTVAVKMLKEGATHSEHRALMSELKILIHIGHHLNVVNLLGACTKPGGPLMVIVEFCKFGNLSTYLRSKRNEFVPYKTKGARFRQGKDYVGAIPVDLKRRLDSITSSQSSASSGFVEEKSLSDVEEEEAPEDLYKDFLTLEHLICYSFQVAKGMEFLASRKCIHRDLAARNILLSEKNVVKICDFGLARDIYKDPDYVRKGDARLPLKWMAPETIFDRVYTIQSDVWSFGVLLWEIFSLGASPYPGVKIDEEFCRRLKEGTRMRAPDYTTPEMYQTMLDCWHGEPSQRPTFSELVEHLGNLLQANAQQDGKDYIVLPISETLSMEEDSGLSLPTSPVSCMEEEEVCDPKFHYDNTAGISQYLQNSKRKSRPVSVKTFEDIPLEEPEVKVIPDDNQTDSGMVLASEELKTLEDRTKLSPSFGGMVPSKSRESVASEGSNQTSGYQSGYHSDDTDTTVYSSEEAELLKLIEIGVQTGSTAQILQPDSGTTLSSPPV

Row | Compound | pIC50 [1, 3] | pIC50 [2, 4] | pIC50 [1, 5] | pIC50 [2]
1 | CC1C/C(=C2/C(=O)Nc3ccccc32)c2ccccc21 (stereo not drawn) [Compound 1, 3-(3-methylindan-1-ylidene)-1,3-dihydroindol-2-one] | < 4.00 | 4.74 |  | 
2 | Cc1cccc2c1CC/C2=C1/C(=O)Nc2ccccc21 [Compound 2, 3-(4-Methylindan-1-ylidene)-1,3-dihydroindol-2-one] | < 4.00 | 5.09 |  | 
3 | COc1ccc2c(c1)CC/C2=C1/C(=O)Nc2ccccc21 [Compound 3, 3-(5-Methoxyindan-1-ylidene)-1,3-dihydroindol-2-one] |  |  | 4.06 | 5.59
4 | CN(C)c1ccc2c(c1)CC/C2=C1/C(=O)Nc2ccccc21 [Compound 5, 3-(5-Dimethylaminoindan-1-ylidene)-1,3-dihydroindol-2-one] | 4.29 | 5.51 |  | 
5 | O=C1Nc2ccccc2/C1=C1\CCc2cc(Cl)ccc21 [Compound 7, 3-(5-Chloroindan-1-ylidene)-1,3-dihydroindol-2-one] | < 4.00 | 5.15 |  | 
6 | O=C1Nc2ccccc2/C1=C1\CCc2cc(N3CCCCC3)ccc21 [Compound 8, 3-(5-Piperidin-1-yl-indan-1-ylidene)-1,3-dihydroindol-2-one] | < 4.00 | 5.37 |  | 
7 | COc1cc2c(cc1OC)/C(=C1\C(=O)Nc3ccccc31)CC2 [Compound 12, 3-(5,6-Dimethoxyindan-1-ylidene)-1,3-dihydroindol-2-one] | < 4.60 | < 4.60 |  | 

Next, values leading:

Row | pIC50 [1, 3] | pIC50 [2, 4] | pIC50 [1, 5] | pIC50 [2] | Compound
8 | < 4.00 | 5.54 |  |  | O=C1Nc2ccccc2/C1=C1\CCc2cc(Br)ccc21 [Compound 9, 3-(5-Bromoindan-1-ylidene)-1,3-dihydroindol-2-one]
9 | 4.20 | 5.85 |  |  | O=C1Nc2ccccc2/C1=C1\CCc2ccccc21 [Compound 10, 3-Indan-1-ylidene-1,3-dihydroindol-2-one]
10 | 5.82 | 7.70 |  |  | COc1ccc2c(c1)C(CC(=O)O)C/C2=C1/C(=O)Nc2ccccc21 (stereo not drawn) [Compound 11, [6-Methoxy-3-(2-oxo-1,2-dihydroindol-3-ylidene)-indan-1-yl]acetic Acid]
11 |  |  | 6.00 and 5.49 |  | COc1ccc2c(c1)C(CC(=O)[O-])CC2=C1C(=O)Nc2ccccc21.[Na+] (stereo not drawn) [Compound 13, [6-Methoxy-3-(2-oxo-1,2-dihydroindol-3-ylidene)-indan-1-yl]acetic Acid Sodium Salt]

— patent US6642251B1, “Geometrically restricted 2-indolinone derivatives as modulators of protein kinase activity” (Sugen, Inc., priority 1998, dated 2003)
